Experimental data taken from patent publication US6342601B1, “Compounds” (AstraZeneca AB, priority 1997, dated 2002).
Counter-ions that a name gives are not always drawn.

| Structure (SMILES) | melting point |
| --- | --- |
| CC(C)Cc1nn(C)c(=O)c2cc(C(O)c3cccc4ccccc34)sc12 (stereo not drawn) [Example 6, 2-[1-Hydroxy-1-(1-naphthalenyl)methyl]-5-methyl-7-(2-methylpropyl)thieno[2,3-d]pyridazin-4(5H)-one] | 165 to 167 °C |
| CC(C)Cc1nn(C)c(=O)c2cc(C(=O)c3cccc4ccccc34)sc12 [Example 9, 5-Methyl-7-(2-methylpropyl)-2-(1-naphthalenylcarbonyl)thieno[2,3-d]pyridazin-4(5H)-one] | 121 °C |
| CC(C)Nc1nn(C)c(=O)c2cn(Cc3cccc4ccccc34)cc12 [Example 22, 2,6-Dihydro-2-methyl-6-(1-naphthalenylmethyl)-4-(1-methylethyl)amino-1H-pyrrolo[3,4-d]pyridazin-1-one] | 221 to 222 °C |
| CC(C)Cc1nn(C)c(=O)c2nn(Cc3cccc4ccccc34)cc12 [Example 33] | 163 to 164 °C |
| CC(C)Cc1nn(C)c(=O)c2c(SCCCC(=O)O)c(Cc3cccc4ccccc34)sc12 [Example 11, 4-{[4,5-Dihydro-5-methyl-7-(2-methylpropyl)-2-(1-naphthalenylmethyl)-4-oxothieno[2,3-d]pyridazin-3-yl]thio}butanoic Acid] | 154 to 156 °C |
| COc1cc(Cn2cc3c(CC(C)C)nn(C)c(=O)c3c2)cc(OC)c1OC [Example 21, 2,6-Dihydro-2-methyl-4-(2-methylpropyl)-6-(3,4,5-trimethoxyphenyl)methyl-1H-pyrrolo[3,4-d]pyridazin-1-one] | 154.5 to 155 °C |
| CC(C)Cc1nn(C)c(=O)c2c(S(=O)(=O)CCCO)c(Cc3cccc4ccccc34)sc12 [Example 13, 3-[(3-Hydroxypropyl)sulfonyl]-5-methyl-7-(2-methylpropyl)-2-(1-naphthalenylmethyl)thieno[2,3-d]pyridazin-4(5H)-one] | 160 to 163 °C |
| CC(C)Cc1nn(C)c(=O)c2c(SCCCO)n(Cc3ccccc3)cc12 [Example 20, 2,6-Dihydro-7-[(3-hydroxypropyl)thio]-2-methyl-4-(2-methylpropyl)-6-phenylmethyl-1H-pyrrolo[3,4-d]pyridazin-1-one] | 91 to 92 °C |
| CC(C)Cc1nn(C)c(=O)c2cn(Cc3ccccc3)cc12 [Example 18, 2,6-Dihydro-2-methyl-4-(2-methylpropyl)-6-phenylmethyl-1H-pyrrolo[3,4-d]pyridazin-1-one] | 104 °C |
| CC(C)Cc1nn(C)c(=O)c2c(SCCCO)n(Cc3cccc4ccccc34)nc12 [Example 34, 2,5-Dihydro-3-[(3-hydoxypropyl)thio]-5-methyl-7-(2-methylpropyl)-2-(1-naphthalenylmethyl)-4H-pyrazolo[3,4-d]pyridazin-4-one] | 141 to 142 °C |
| CC(C)Cc1nn(C)c(=O)c2cn(Cc3cccc4ccccc34)cc12 [Example 1, 2,6-Dihydro-2-methyl-4-(2-methylpropyl)-6-(1-naphthalenylmethyl)-1H-pyrrolo[3,4-d]pyridazin-1-one] | 110 to 112 °C |
| CC(C)Cc1nn(C)c(=O)c2cn(Cc3cccc4ccccc34)nc12 [Example 32, 2,5-Dihydro-5-methyl-7-(2-methylpropyl)-2-(1-naphthalenylmethyl)-4H-pyrazolo[3,4-d]pyridazin-4-one] | 166 to 167 °C |
| CC(C)Cc1nn(C)c(=O)c2c(SCCCO)c(Cc3ccccc3)sc12 [Example 16, 3-[(3-Hydroxypropy)thio]-5-methyl-7-(2-methylpropyl)-2-phenylmethylthieno[2,3-d]pyridazin-4(5H)-one] | 60 to 65 °C |
| CC(C)Cc1nn(C)c(=O)c2c(Sc3ccccn3)n(Cc3ccccc3)cc12 [Example 19, 2,6-Dihydro-2-methyl-4-(2-methylpropyl)-6-phenylmethyl-7-(2-pyridinylthio)-1H-pyrrolo[3,4-d]pyridazin-1-one] | 131 to 132 °C |
| COCCn1nc(CC(C)C)c2cn(Cc3cccc4ccccc34)cc2c1=O [Example 2, 2,6-Dihydro-2-(2-methoxyethyl)-4-(2-methylpropyl)-6-(1-naphthalenylmethyl)-1H-pyrrolo[3,4-d]pyridazin-1-one] | 96 to 98 °C |
| CC(C)Cc1nn(C)c(=O)c2c([S+]([O-])CCCO)c(Cc3cccc4ccccc34)sc12 (stereo not drawn) [Example 10, 3[(3-Hydroxypropyl)sulfinyl]-5-methyl-7-(2-methylpropyl)-2-(1-naphthalenylmethyl)thieno[2,3-d]pyridazin-4(5H)-one] | 60 to 65 °C |
| CC(C)Cc1nn(C)c(=O)c2c(S(=O)(=O)CCCO)c(Cc3ccccc3)sc12 [Example 17, 3-[(3-Hydroxypropyl)sulfonyl]-5-methyl-7-(2-methylpropyl)-2-phenylmethylthieno[2,3-d]pyridazin-4(5H)-one] | 105 to 107 °C |
| CC(C)Cc1nn(C)c(=O)c2cc(Cc3ccccc3)sc12 [Example 15, 5-Methyl-7-(2-methylpropyl)-2-phenylmethylthieno[2,3-d]pyridazin-4(5H)-one] | 97 to 98 °C |
| CC(C)Cc1nn(C)c(=O)c2c(SCCCC(=O)O)n(Cc3cccc4ccccc34)cc12 [Example 4, 4-{[2,6-Dihydro-2-methyl-4-(2-methylpropyl)-6-(1-naphthalenylmethyl)-1-oxo-1H-pyrrolo[3,4-d]pyridazin-7-yl]thio}butanoic Acid] | 167 °C |
| CC(C)Cc1nn(C)c(=O)c2cn(Cc3ccncc3)cc12 [Example 23, 2,6-Dihydro-2-methyl-4-(2-methylpropyl)-6-(4-pyridinyl)methyl-1H-pyrrolo[3,4-d]pyridazin-1-one] | 91 to 93 °C |
| CC(C)Cc1nn(C)c(=O)c2c([S+]([O-])CCCO)n(Cc3cccc4ccccc34)cc12 (stereo not drawn) [Example 5 (A), 2,6-Dihydro-7-[(3-hydroxypropyl)sulfinyl]-2-methyl-4-(2-methylpropyl)-6-(1-naphthalenylmethyl)-1H-pyrrolo[3,4-d]pyridazin-1-one] | 164 to 166 °C |

The remaining lines, values ahead:

| melting point | Structure (SMILES) |
| --- | --- |
| 110 to 112 °C | CC(C)Cc1nn(C)c(=O)c2cc(C(O)c3cccc4ccccc34)oc12 (stereo not drawn) [Example 35, 2-[1-Hydroxy-1-(1-naphthalenyl)methyl]-5-methyl-7-(2-methylpropyl)furo[2,3-d]pyridazin-4(5H)one] |
| 73 to 75 °C | CC(C)Cc1nn(C)c(=O)c2cc(Cc3cccc4ccccc34)oc12 [Example 36, 5-Methyl-7-(2-methylpropyl)-2-(1-naphthalenylmethyl)furo[2,3-d]pyridazin-4(5H)one] |
| 112 to 114 °C | CC(C)Cc1nn(C)c(=O)c2cc(Cc3ccccc3C(F)(F)F)sc12 [Example 39, 2-(2-Trifluoromethylphenyl)methyl-5-methyl-7-(2-methylpropyl)thieno[2,3-d]pyridazin-4(5H)-one] |
| 76 to 78 °C | CC(C)Cc1nn(C)c(=O)c2cc(Cc3cccc(C#N)c3)oc12 [Example 38, 2-(3-Cyanophenyl)methyl-5-methyl-7-(2-methylpropyl)furo[2,3-d]pyridazin-4(5H)one] |
| 106 to 108 °C | CC(C)Cc1nn(C)c(=O)c2cc(C(O)c3cccc(C#N)c3)oc12 (stereo not drawn) [Example 37, 2-[1-Hydroxy-1-(3-cyanophenyl)methyl]-5-methyl-7-(2-methylpropyl)furo[2,3-d]pyridazin4(5H)one] |
| > 230 °C (dec.) | CC(C)Cc1nn(C)c(=O)c2cc(Cc3cnc4ccccc4c3)sc12 (as salt: hydrochloride) [Example 44, 5-Methyl-7-(2-methylpropyl)-2-(3-quinolinylmethyl)thieno[2,3-d]pyridazin-4(5H)-one Hydrochloride] |
| 118 to 119 °C | CC(C)Cc1nn(C)c(=O)c2cc(Cc3cccnc3)sc12 [Example 41, 5Methyl-7-(2-methylpropyl)-2-(3-pyridinylmethyl)thieno[2,3-d]pyridazin-4(5H)-one] |
| 85 to 86 °C | CC(C)Cc1nn(C)c(=O)c2cc(Cc3c(F)cccc3Cl)sc12 [Example 42, 2-(2-Chloro-6-fluorophenyl)methyl-5-methyl-7-(2-methylpropyl)thieno[2,3-d]pyridazin-4(5H)-one] |
| 154 to 156 °C | CC(C)Cc1nn(C)c(=O)c2cc(C(O)c3cccnc3)sc12 (stereo not drawn) (as salt: hydrochloride) [Example 40, 2-[(1-Hydroxy-1-pyridin-3-yl)methyl]-5-methyl-7-(2-methylpropyl)thieno[2,3-d]pyridazin-4(5H)-one Hydrochloride] |
